What was measured:
MAGL [1] = target: T1, MAGL (Homo sapiens, UniProt Q99685); assay: In vitro competitive activity-based protein profiling, MAGL, human; details: for inhibition at 10 µM: read-out: MAGL % inh. (human) at 10 uM; for inhibition at 1 µM: read-out: MAGL % inh. 1 μM (human)
T1 sequence (Q99685 1-303): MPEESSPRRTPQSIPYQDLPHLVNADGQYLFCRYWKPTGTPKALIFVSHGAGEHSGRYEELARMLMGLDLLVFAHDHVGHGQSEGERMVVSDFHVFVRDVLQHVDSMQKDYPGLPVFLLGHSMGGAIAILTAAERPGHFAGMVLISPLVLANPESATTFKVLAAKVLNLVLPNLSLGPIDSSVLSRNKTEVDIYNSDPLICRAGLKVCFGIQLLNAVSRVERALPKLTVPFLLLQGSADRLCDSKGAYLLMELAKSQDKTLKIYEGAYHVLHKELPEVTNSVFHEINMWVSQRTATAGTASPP

MAGL [2] = target: T2, MAGL (Mus musculus, UniProt O35678); assay: In vitro competitive activity-based protein profiling, MAGL, mouse; details: read-out: MAGL % inh. 1 μM (mouse)
T2 sequence (O35678 1-303): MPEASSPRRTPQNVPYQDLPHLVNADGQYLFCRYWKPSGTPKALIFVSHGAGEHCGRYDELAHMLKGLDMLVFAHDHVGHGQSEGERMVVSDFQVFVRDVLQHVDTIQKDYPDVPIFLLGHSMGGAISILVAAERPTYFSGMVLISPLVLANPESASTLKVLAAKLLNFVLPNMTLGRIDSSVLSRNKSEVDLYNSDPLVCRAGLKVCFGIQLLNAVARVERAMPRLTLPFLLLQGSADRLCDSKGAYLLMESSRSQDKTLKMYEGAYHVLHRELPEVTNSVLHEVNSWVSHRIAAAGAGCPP

| Structure (SMILES) | inhibition at 10 µM (MAGL [1]) | inhibition at 1 µM (MAGL [2]) | inhibition at 1 µM (MAGL [1]) |
| --- | --- | --- | --- |
| NC(=O)c1ccc(Cl)cc1CN1CCC2(CCN(C(=O)n3ccc(C(=O)O)n3)CC2)C1 [Example 300, 1-(2-(2-carbamoyl-5-chlorobenzyl)-2,8-diazaspiro[4.5]decane-8-carbonyl)-1H-pyrazole-3-carboxylic acid] | > 75% | 0 to 25% |  |
| Cc1cn(C(=O)N2C[C@H]3C[C@H](OCc4cccc(C(F)(F)F)c4C)C[C@H]3C2)nc1C(=O)O [Example 306, 4-methyl-1-(trans-5-((2-methyl-3-(trifluoromethyl)benzyl)oxy)octa-hydrocyclopenta[c]pyrrole-2-carbonyl)-1H-pyrazole-3-carboxylic acid] |  | > 75% | > 75% |
| O=C(O)c1ccn(C(=O)N2CCC3(CC2)CN(Cc2cc(Cl)ccc2C(F)(F)F)C3)n1 [Example 313, 1-(2-(5-chloro-2-(trifluoromethyl)benzyl)-2,7-diazaspiro[3.5]non-ane-7-carbonyl)-1H-pyrazole-3-carboxylic acid] |  | > 75% | > 75% |
| O=C(O)c1nn(C(=O)N2C[C@H]3C[C@H](OCc4cccc(C(F)(F)F)c4)C[C@H]3C2)cc1Cl [Example 314, 4-chloro-1-(trans-5-((3-(trifluoromethyl)benzyl)oxy)octa-hydrocyclopenta[c]pyrrole-2-carbonyl)-1H-pyrazole-3-carboxylic acid] |  | > 75% | > 75% |
| O=C(O)c1ccn(C(=O)N2C[C@H]3CN(Cc4ccc(Cl)c(-c5nccs5)c4)C[C@H]3C2)n1 [Example 315, 1-((3aR,6aS)-5-(4-chloro-3-(thiazol-2-yl)benzyl)octa-hydropyrrolo[3,4-c]pyrrole-2-carbonyl)-1H-pyrazole-3-carboxylic acid] |  | > 75% | > 75% |
| Cc1cn(C(=O)N2CCC3(CCN(Cc4cc(Cl)cc(Cl)c4)C3)CC2)nc1C(=O)O [Example 316, 1-(2-(3,5-dichlorobenzyl)-2,8-diazaspiro[4.5]decane-8-carbonyl)-4-methyl-1H-pyrazole-3-carboxylic acid] |  | > 75% | > 75% |
| O=C(O)c1ccn(C(=O)N2CCC3(CCN(Cc4cc(Cl)ccc4N4CCC4)C3)CC2)n1 [Example 317, 1-(2-(2-(azetidin-1-yl)-5-chlorobenzyl)-2,8-diazaspiro[4.5]decane-8-carbonyl)-1H-pyrazole-3-carboxylic acid] |  | > 75% | > 75% |
| O=C(O)c1ccn(C(=O)N2C[C@H]3C[C@H](Oc4ccc(Cl)c(-c5nccs5)c4)C[C@H]3C2)n1 [Example 318, 1-(trans-5-(4-chloro-3-(thiazol-2-yl)phenoxy)octa-hydrocyclopenta[c]pyrrole-2-carbonyl)-1H-pyrazole-3-carboxylic acid] |  | > 75% | > 75% |
| Cc1c(CN2CCC3(CCN(C(=O)n4ccc(C(=O)O)n4)CC3)C2)cccc1-c1ccccc1 [Example 322, 1-(2-((2-methyl-[1,1′-biphenyl]-3-yl)methyl)-2,8-diazaspiro[4.5]decane-8-carbonyl)-1H-pyrazole-3-carboxylic acid] |  | > 75% | > 75% |
| C[C@@H]1CN(Cc2ccc(C(F)(F)F)cc2N2CCCC2)CCN1C(=O)n1ccc(C(N)=O)n1 [Example 325, (R)-1-(2-methyl-4-(2-(pyrrolidin-1-yl)-4-(trifluoromethyl)benzyl)piperazine-1-carbonyl)-1H-pyrazole-3-carboxamide] |  | > 75% | > 75% |
| C[C@H]1CN(Cc2ccc(C(F)(F)F)cc2N2CCCC2)CCN1C(=O)n1ccc(C(N)=O)n1 [Example 326, (S)-1-(2-methyl-4-(2-(pyrrolidin-1-yl)-4-(trifluoromethyl)benzyl)piperazine-1-carbonyl)-1H-pyrazole-3-carboxamide] |  | > 75% | > 75% |

Now from value to compound:

| inhibition at 10 µM (MAGL [1]) | inhibition at 1 µM (MAGL [2]) | inhibition at 1 µM (MAGL [1]) | Structure (SMILES) |
| --- | --- | --- | --- |
| > 75% | 0 to 25% |  | O=C(O)c1ccn(C(=O)N2CCC3(CCN(Cc4cccc(-c5ccccn5)c4)C3)CC2)n1 [Example 301, 1-(2-(3-(pyridin-2-yl)benzyl)-2,8-diazaspiro[4.5]decane-8-carbonyl)-1H-pyrazole-3-carboxylic acid] |
| > 75% | 0 to 25% |  | O=C(O)c1ccn(C(=O)N2CCC3(CCN(Cc4cccc(-c5cncnc5)c4)C3)CC2)n1 [Example 302, 1-(2-(3-(pyrimidin-5-yl)benzyl)-2,8-diazaspiro[4.5]decane-8-carbonyl)-1H-pyrazole-3-carboxylic acid] |
|  | > 75% | > 75% | O=C(O)c1nn(C(=O)N2C[C@H]3C[C@H](Oc4cccc(-c5ccccc5)c4)C[C@H]3C2)cc1Cl [Example 304, 1-(trans-5-([1,1′-biphenyl]-3-yloxy)octahydrocyc-lopenta[c]pyrrole-2-carbonyl)-4-chloro-1H-pyrazole-3-carboxylic acid] |
|  | 0 to 25% | 50 to 75% | O=C(O)c1ccn(C(=O)N2CCC3(CCN(Cc4cccc(-c5nccs5)c4)C3)CC2)n1 [Example 305, 1-(2-(3-(thiazol-2-yl)benzyl)-2,8-diazaspiro[4.5]decane-8-carbonyl)-1H-pyrazole-3-carboxylic acid] |
|  | > 75% | > 75% | C[C@@H]1CN(Cc2cccc(Oc3ccc(Cl)cc3)c2)CCN1C(=O)n1ccc(C(N)=O)n1 [Example 310, (R)-1-(4-(3-(4-chlorophenoxy)benzyl)-2-methylpiperazine-1-carbonyl)-1H-pyrazole-3-carboxamide] |
|  | > 75% | > 75% | O=C(O)c1ccn(C(=O)N2CCN(Cc3cc(F)cc(Oc4ccccc4Cl)c3)CC2)n1 [Example 319, 1-(4-(3-(2-chlorophenoxy)-5-fluorobenzyl)piper-azine-1-carbonyl)-1H-pyrazole-3-carboxylic acid] |
|  | > 75% | > 75% | O=C(O)c1nn(C(=O)N2CCN(Cc3cccc(Oc4ccc(F)cc4)c3)CC2)cc1Cl [Example 320, 4-chloro-1-(4-(3-(4-fluorophenoxy)benzyl)piperazine-1-carbonyl)-1H-pyrazole-3-carboxylic acid] |
|  | > 75% | > 75% | O=C(O)c1ccn(C(=O)N2CCN(Cc3cc(F)cc(Oc4cccc(Cl)c4)c3)CC2)n1 [Example 321, 1-(4-(3-(3-chlorophenoxy)-5-fluorobenzyl)piper-azine-1-carbonyl)-1H-pyrazole-3-carboxylic acid] |
|  | > 75% | > 75% | O=C(O)c1nn(C(=O)N2CCN(Cc3cc(Cl)cc(-c4cncnc4)c3)CC2)cc1Cl [Example 323, 4-chloro-1-(4-(3-chloro-5-(pyrimidin-5-yl)benzyl)piperazine-1-carbonyl)-1H-pyrazole-3-carboxylic acid] |
|  | 0 to 25% | 25 to 50% | O=C(O)c1ccn(C(=O)N2CCC3(CCN(Cc4cccc(Oc5ccccn5)c4)C3)CC2)n1 [Example 324, 1-(2-(3-(pyridin-2-yloxy)benzyl)-2,8-diazaspiro[4.5]decane-8-carbonyl)-1H-pyrazole-3-carboxylic acid] |
